From patent US8507533B2, “Glucagon receptor modulators” (Pfizer Inc., priority 2011, dated 2013) come the findings set out here.

The target of experiment [1] is T1, human glucagon receptor (Homo sapiens (Human), UniProt P47871). Kind of experiment: Glucagon cAMP Assay (Cisbio cAMP detection). In kind it is cell-based. Particulars: CHOK1 cells stably transfected with the human glucagon receptor; block of glucagon induced cAMP production; Kb by modified Cheng-Prusoff equation. How it is done: The Cisbio cAMP detection assay is used to determine the ability of punitive glucagon antagonist to block glucagon induced cAMP production. Potential glucagon antagonists are re-suspended and diluted in 100% DMSO. Prior to use in the Glucagon cAMP assay 100×DMSO compound stocks are diluted 20× with DMEM-F12 media (Invitrogen) containing either 0.1% or 4% BSA. […] 2 μls of 5% DMSO or known glucagon antagonist are added to each plate to define the assay window. CHOK1 cells stably transfected with the human glucagon receptor are removed from culture flasks with cell dissociation buffer. Cell pellets are re-suspended, at a concentration of 8.3e^5 cells/ml in DMEM-F12 with or without 4% BSA and 200 uM IBMX. 6 μls of cell suspensions are added to the assay plates. Plates are incubated for 20 min at room temperature prior to the addition of a 100 μM challenge dose of glucagon. On a separate plate glucagon dose response curves are run to determine the EC50 of glucagon. After a 30 min room temperature incubation the reaction is terminated by the addition of lysis buffer containing the cAMP detection reagents. Plates are incubated for an additional 60 min at room temperature prior to being read on the Perkin Elmer fluorescent plate reader. Raw is converted to nM of cAMP produced based on a cAMP standard curve. Converted data is then analyzed using the Pfizer data analysis program. IC50 values are determined from the generated sigmoidal dose response curves. Kb values are calculated using a modified Cheng-Prusoff equation. N is the number of times the compound was assayed.
In general terms: Changes in cAMP serve as a functional read-out for many G protein-coupled receptors.

The target of experiment [2] is T1, human glucagon receptor. Kind of experiment: Human Glucagon SPA Assay (binding of [125I]Glucagon-Cex). Particulars: membrane from chem-1 cells stably transfected with the human glucagon receptor, Ki by Cheng-Prusoff equation. How it is done: The Glucagon SPA assay is used to determine the ability of test compounds to block the binding of glucagon-cex to the glucagon receptor. Test compounds are re-suspended and serially diluted in 100% DMSO. 1 μl of test compound at the desired concentrations is spotted into the appropriate wells of 96 well low binding white clear bottom plate (Corning). 1 μl of DMSO is spotted into total binding wells. 1 μl of a known glucagon antagonist at a concentration of 20 μM is added to non specific binding wells. […] All assay ingredients with the exception of test compounds are re-suspended in the following buffer; 50 mM Hepes pH 7.4; 5 mM MgCl2; 1 mM CaCl; 5% glycerol and 0.2% BSA. Following a 6-10 hr incubation at room temperature the amount of hot ligand bound to the cell membranes is determined by reading the plates on a Wallac Trilux radioactive emission detector. Data is analyzed using Pfizer's Data analysis program. IC50 values are then determined from the generated sigmoidal dose response curves. Ki values are calculated using Cheng-Prusoff equation. N is the number of times the compound was assayed.

T1 sequence (P47871 26-477): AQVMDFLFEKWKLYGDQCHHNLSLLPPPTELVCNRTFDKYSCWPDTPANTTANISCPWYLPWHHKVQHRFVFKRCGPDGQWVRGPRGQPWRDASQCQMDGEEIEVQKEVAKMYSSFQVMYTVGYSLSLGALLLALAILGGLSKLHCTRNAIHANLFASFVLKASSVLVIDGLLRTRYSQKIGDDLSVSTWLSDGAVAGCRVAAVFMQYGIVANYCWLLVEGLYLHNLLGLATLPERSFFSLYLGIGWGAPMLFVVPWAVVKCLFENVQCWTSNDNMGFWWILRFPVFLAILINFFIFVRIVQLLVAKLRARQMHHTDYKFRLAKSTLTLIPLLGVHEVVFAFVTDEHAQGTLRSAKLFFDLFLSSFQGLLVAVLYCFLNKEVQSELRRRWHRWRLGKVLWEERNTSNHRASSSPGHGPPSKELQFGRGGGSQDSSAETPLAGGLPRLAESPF

Broadly, the Ki is the equilibrium dissociation constant of an inhibitor or competing ligand from its target. On human glucagon receptor [1], `CCCC(Oc1ccc(-n2cc(Cl)c(C)n2)cc1)c1ccc(C(=O)NCCC(=O)O)cc1` (racemic) [Example 22, (+/−)-3-(4-(1-(4-(4-chloro-3-methyl-1H-pyrazol-1-yl)phenoxy)butyl)benzamido)propanoic acid] displayed a Kb of 835 nM. The same compound came in with a Ki on human glucagon receptor [2] of 665 nM.

Turning to `CCCCc1ccn(-c2ccc(OC(CCC)c3ccc(C(=O)NCCC(=O)O)cc3)cc2)n1` (racemic) [Example 31, (+/−)-3-(4-(1-(4-(3-butyl-1H-pyrazol-1-yl)phenoxy)butyl)benzamido)propanoic acid], the Kb at human glucagon receptor [1] came to 1450 nM. The Ki on human glucagon receptor [2] worked out at 1330 nM.

As to `CCCC(Oc1ccc(-c2cc(C(F)(F)F)nn2C)cc1)c1ccc(C(=O)NCCC(=O)O)cc1` (racemic) [Example 53, (+/−)-3-(4-(1-(4-(1-methyl-3-(trifluoromethyl)-1H-pyrazol-5-yl)phenoxy)butyl)benzamido)propanoic acid], at human glucagon receptor [1], the Kb was determined as 2610 nM. This compound gave a Ki on human glucagon receptor [2] of 556 nM. Take `O=C(O)CCNC(=O)c1ccc(C(Nc2ccc(-n3cc(C(F)(F)F)cn3)nc2)C2CCCCC2)cc1` (racemic) [Example 101, (+/−)-3-(4-(cyclohexyl(6-(4-(trifluoromethyl)-1H-pyrazol-1-yl)pyridine-3-ylamino)methyl)benzamido)propanoic acid]: at human glucagon receptor [1], the Kb came out at 79.3 nM. The Ki at human glucagon receptor [2] stood at 17 nM. As for `Cc1cc(NC(CC(C)C)c2ccc(C(=O)NCCC(=O)O)cn2)cnc1-n1cc(C(F)(F)F)cn1` (racemic) [Example 102, (+/−)-3-(6-(3-methyl-1-(5-methyl-6-(4-(trifluoromethyl)-1H-pyrazol-1-yl)pyridin-3-ylamino)butyl)nicotinamido)propanoic acid], the Kb at human glucagon receptor [1] came out at 3540 nM.

`Cc1cc(NC(CC(C)C)c2ccc(C(=O)NCCC(=O)O)cc2)cnc1-n1cc(C(F)(F)F)cn1` (racemic) [Example 105, (+/−)-3-(4-(3-methyl-1-(5-methyl-6-(4-(trifluoromethyl)-1H-pyrazol-1-yl)pyridin-3-ylamino)butyl)benzamido)propanoic acid] yielded a Kb at human glucagon receptor [1] of 455 nM. The compound also showed a Ki on human glucagon receptor [2] of 69.8 nM. With `O=C(O)CCNC(=O)c1ccc(C(Nc2ccc(-n3cc(C(F)(F)F)cn3)nc2)C2CCC2)cc1` (racemic) [Example 106, (+/−)-3-(4-(cyclobutyl(6-(4-(trifluoromethyl)-1H-pyrazol-1-yl)pyridin-3-ylamino)methyl)benzamido)propanoic acid], the Kb at human glucagon receptor [1] is 187 nM. Besides, the inhibition constant (Ki) at human glucagon receptor [2] was 91.9 nM. The compound `O=C(O)CCNC(=O)c1ccc(C(CC2CC2)Nc2ccc(-n3cc(C(F)(F)F)cn3)nc2)cc1` (racemic) [Example 107, (+/−)-3-(4-(2-cyclopropyl-1-(6-(4-(trifluoromethyl)-1H-pyrazol-1-yl)pyridin-3-ylamino)ethyl)benzamido)propanoic acid] showed a Kb on human glucagon receptor [1] of 252 nM. The affinity on human glucagon receptor [2], expressed as Ki, was 71.6 nM. As to `O=C(O)CCNC(=O)c1ccc(C(Oc2ccc(-n3cc4ccccc4n3)cc2)C2CCCC2)cc1` (racemic) [Example 119, (+/−)-3-(4-((4-(2H-indazol-2-yl)phenoxy)(cyclopentyl)methyl)benzamido)propanoic acid], the Kb on human glucagon receptor [1] worked out at 67 nM. Besides, the inhibitory constant (Ki) on human glucagon receptor [2] came to 103 nM.

For the compound `O=C(O)CCNC(=O)c1ccc(C(Nc2ccc(-n3cnc(C(F)(F)F)c3)nc2)C(F)(F)F)cc1` (racemic) [Example 121, (+/−)-3-(4-(2,2,2-trifluoro-1-(6-(4-(trifluoromethyl)-1H-imidazol-1-yl)pyridin-3-ylamino)ethyl)benzamido)propanoic acid], the Kb at human glucagon receptor [1] came to 764 nM. The same compound gave a Ki at human glucagon receptor [2] of 298 nM.

As to `CC(C)(C)c1cn(-c2ccc(NC(c3ccc(C(=O)NCCC(=O)O)cc3)C3CCCC3)cn2)cn1` (racemic) [Example 122, (+/−)-3-(4-((6-(4-tert-butyl-1H-imidazol-1-yl)pyridin-3-ylamino)(cyclopentyl)methyl)benzamido)propanoic acid], the Kb on human glucagon receptor [1] is 43 nM. This compound registered a Ki on human glucagon receptor [2] of 45.7 nM. At human glucagon receptor [1], `CCCC(Oc1cnc(-n2cc(C(F)(F)F)cn2)c(C)c1)c1ccc(C(=O)NCCC(=O)O)cc1` (racemic) [Example 150, (+/−)-3-(4-(1-(5-methyl-6-(4-(trifluoromethyl)-1H-pyrazol-1-yl)pyridin-3-yloxy)butyl)benzamido)propanoic acid] registered a Kb of 1640 nM. Besides, the Ki at human glucagon receptor [2] is 446 nM. For the compound `Cc1cc(OC(c2ccc(C(=O)NCCC(=O)O)cc2)C2CCC2)cc(C)c1-n1cc(C(F)(F)F)cn1` (racemic) [Example 151, (+/−)-3-(4-(cyclobutyl(3,5-dimethyl-4-(4-(trifluoromethyl)-1H-pyrazol-1-yl)phenoxy)methyl)benzamido)propanoic acid], the Kb on human glucagon receptor [1] worked out at 227 nM. The compound also displayed an inhibition constant Ki at human glucagon receptor [2] of 20.2 nM.

`Cc1cc(OC(c2ccc(C(=O)NCCC(=O)O)cc2)C2CC(C)(C)C2)cc(C)c1-n1cc(C(F)(F)F)cn1` (racemic) [Example 152, (+/−)-3-(4-((3,5-dimethyl-4-(4-(trifluoromethyl)-1H-pyrazol-1-yl)phenoxy)(3,3-dimethylcyclobutyl)methyl)benzamido)propanoic acid] displayed a Kb at human glucagon receptor [1] of 301 nM. This compound gave a Ki on human glucagon receptor [2] of 35.2 nM. For the compound `CCCC(Oc1cc(C)c(-n2cc(C(F)(F)F)cn2)c(OC)c1)c1ccc(C(=O)NCCC(=O)O)cc1` (racemic) [Example 153, (+/−)-3-(4-(1-(3-methoxy-5-methyl-4-(4-(trifluoromethyl)-1H-pyrazol-1-yl)phenoxy)butyl)benzamido)propanoic acid], the Kb at human glucagon receptor [1] amounted to 225 nM. Besides, at human glucagon receptor [2], the affinity corresponds to a Ki of 32.3 nM. As for `O=C(O)CCNC(=O)c1ccc(C(Nc2ccc(-n3cnc(C(F)(F)F)c3)nc2)C2CC(F)(F)C2)cc1` (racemic) [Example 154, (+/−)-3-(4-((3,3-difluorocyclobutyl)(6-(4-(trifluoromethyl)-1H-imidazol-1-yl)pyridin-3-ylamino)methyl)benzamido)propanoic acid], at human glucagon receptor [1], the Kb amounted to 629 nM. The compound further came in with a Ki on human glucagon receptor [2] of 235 nM.

At human glucagon receptor [1], `O=C(O)CCNC(=O)c1ccc(C(Nc2ccc(-n3cc(C(F)(F)F)cn3)nc2)C2CCCC2)cc1` (single isomer, unassigned) [Example 95, 3-(4-(cyclopentyl(6-(4-(trifluoromethyl)-1H-pyrazol-1-yl)pyridine-3-ylamino)methyl)benzamido)propanoic acid] yielded a Kb of 32.8 nM. Regarding `O=C(O)CCNC(=O)c1ccc(C(Nc2ccc(-n3cc(C(F)(F)F)cn3)nc2)C2CCCC2)cc1` (single isomer, unassigned) [Example 96, 3-(4-(cyclopentyl(6-(4-(trifluoromethyl)-1H-pyrazol-1-yl)pyridine-3-ylamino)methyl)benzamido)propanoic acid], the Kb at human glucagon receptor [1] was found to be 871 nM.

`Cc1cc(-n2cc(C(F)(F)F)cn2)ccc1C(Nc1ccc(C(=O)NCCC(=O)O)cn1)C1CCCCC1` (single isomer, unassigned) [Example 117, 3-(6-(cyclohexyl(2-methyl-4-(4-(trifluoromethyl)-1H-pyrazol-1-yl)phenyl)methylamino)nicotinamido)propanoic acid] gave a Kb on human glucagon receptor [1] of 227 nM. Same read-out and setting: under `Cc1cc(-n2cc(C(F)(F)F)cn2)ccc1C(Nc1ccc(C(=O)NCCC(=O)O)cn1)C1CCCCC1` (single isomer, unassigned) [Example 118, 3-(6-(cyclohexyl(2-methyl-4-(4-(trifluoromethyl)-1H-pyrazol-1-yl)phenyl)methylamino)nicotinamido)propanoic acid] stands 1020 nM; under `CCCC(Nc1ccc(-n2cnc(C(F)(F)F)c2)nc1)c1ccc(C(=O)NCCC(=O)O)cc1` (single isomer, unassigned; isomer 1) [Example 10, 3-(4-(1-(6-(4-(trifluoromethyl)-1H-imidazol-1-yl)yridine-3-ylamino)butyl)benzamido)propanoic acid, Isomer 1], 15500 nM. The compound `CCCC(Nc1ccc(-n2cnc(C(F)(F)F)c2)nc1)c1ccc(C(=O)NCCC(=O)O)cc1` (single isomer, unassigned; isomer 2) [Example 11, 3-(4-(1-(6-(4-(trifluoromethyl)-1H-imidazol-1-yl)yridine-3-ylamino)butyl)benzamido)propanoic acid, Isomer 2] displayed a Kb at human glucagon receptor [1] of 612 nM. With `CCCC(Oc1ccc(-n2cc(-c3ccccc3)cn2)nc1)c1ccc(C(=O)NCCC(=O)O)cc1` (centres unmarked) [Example 133], the Kb on human glucagon receptor [1] is 75 nM.
